System: staphylococcus aureus
Experiment: Antimicrobial inhibition zone test based on ATCC6538p
Assay type: cell-based
Description: The antimicrobial adhesive prepared by the foregoing method is placed in a 7 ml glass vial and it is used to perform stability test for Ag/PP particulates, polymerization test for the cyanoacrylate monomers (as shown in Table 1), antimicrobial test for staphylococcus aureus (as shown in Table 2) and antimicrobial test for escherichia coli (as shown in Table 3).

C=C(C#N)C(=O)OC(C)CCCCCC (centres unmarked) [Experiment C, 2-octyl cyanoacrylate]
Increased in the diameter of inhibition zone (%) (compared to Control) (compared to Control (filter paper)): 16.4% | Diameter of inhibition zone (on filter paper, ATCC6538p): 0.93 cm
